The record followed here is PMC5362750, “Discovery of Potent, Selective, and Orally Bioavailable Small-Molecule Modulators of the Mediator Complex-Associated Kinases CDK8 and CDK19” (Journal of Medicinal Chemistry, 2016).

Series [1] in a line: Mouse Clint determination. In kind it is in vitro ADME. The following applies: pH 7.4; mouse microsomes. As to the method: (§1) Mouse, Rat, and Human Clint Determination
(§2) Microsomes (final concentration 0.5 mg/mL), 50 mM phosphate buffer pH 7.4, and compound (final concentration 1 μM) were added to the assay plate and allowed to preincubate for 5 min at 37 °C. The reaction was initiated by the addition of NADPH (final concentration 1.5 mM), and the plate was shaken at 800 rpm at 37 °C. After 0, 5, 10, 20, and 30 min aliquots were taken and the reaction was stopped using cold acetonitrile. The samples were centrifuged at 4000 rpm for 30 min at 4 °C and analyzed by LC–MS/MS. Four test compounds were pooled for analysis. The in vitro intrinsic clearance was calculated from the rate of compound disappearance.

Series [2] in a line: Kinetic solubility determination. As to conditions: phosphate buffer, pH 7.4, Solubility Kinetic, free base.
Another series in a line: Rat Clint determination. The class given is in vitro ADME. The following applies: pH 7.4; rat microsomes.
A short description of series [3]: Human Clint determination. In kind it is in vitro ADME. As to conditions: pH 7.4; human microsomes. As to the method: as §1, §2

Each structure is given as a SMILES string. ≈ marks a conversion by molar mass, not a printed value.

What is called microsomal CLint is the capacity of the preparation to metabolise the compound, expressed as a volume cleared per time. As usually defined, the kinetic solubility is solubility judged after dilution from a stock solution rather than from solid.

Turning to `CC(C)n1ncc2ccc(-c3cnc(N)c(Cl)c3N3CCC4(CCNC4=O)CC3)cc21` [Compound 111], the microsomal CLint at 1 μM in series [1] came to 202 µL/min/mg; in “Rat Clint determination” it was 139 µL/min/mg; in series [3], 202 µL/min/mg. The compound also gave a kinetic solubility at 120 min in series [2] of 126 µM (≈ 55.3 µg/mL).
